Reference: the supplement of paper PMC10307832

Compound: COc1cc(Nc2ncc3c(n2)-c2ccc(Cl)cc2C(c2c(F)cccc2OC)=NC3)ccc1C(=O)O [Alisertib]
Experiment: relative viability (nuclei count vs DMSO), 5 days (fraction); higher = more cells survive
Summary of the method: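 Following overnight incubation at 37 °C, lung cancer cell lines in 1536-well plates were pinned with five library-drug doses (not always all listed) in √10 steps on vehicle-anchored plates. The cells then spent 5 days without medium change before a combined fix, permeabilisation and Hoechst stain, 4× imaging and MetaXpress nuclear counts. Viability is the treated-to-vehicle ratio of nuclei, taken as the median across plates. Only plates with control CV below 25% and at least one doubling passed.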

Cell Line | relative viability (0.005 µM) | relative viability (0.01581 µM) | relative viability (0.05 µM) | relative viability (0.1581 µM) | relative viability (0.5 µM)
201T | 0.985 | 0.964 | 0.966 | 0.466 | 0.386
A-427 | 0.798 | 0.681 | 0.333 | 0.231 | 0.19
ABC-1 | 0.794 | 0.845 | 0.787 | 0.286 | 0.293
BEN | 0.88 | 0.812 | 0.374 | 0.234 | 0.209
CAL-12T | 0.827 | 0.636 | 0.229 | 0.193 | 0.179
COR-L23 | 1.02 | 0.846 | 0.484 | 0.203 | 0.123
COR-L 105 | 0.863 | 0.952 | 0.765 | 0.305 | 0.303
Calu-6 | 0.863 | 0.669 | 0.319 | 0.196 | 0.186
ChaGo-K-1 | 0.84 | 0.855 | 0.348 | 0.245 | 0.223
EKVX | 0.907 | 0.85 | 0.43 | 0.231 | 0.186
EMC-BAC-2 | 0.681 | 0.625 | 0.455 | 0.299 | 0.259
EPLC-272H | 0.834 | 0.758 | 0.646 | 0.127 | 0.139
H3255 | 0.94 | 0.859 | 0.586 | 0.251 | 0.205
HARA | 0.897 | 0.94 | 0.656 | 0.24 | 0.185
HCC-15 | 0.862 | 0.723 | 0.513 | 0.138 | 0.138
HCC-44 | 0.933 | 0.928 | 0.816 | 0.275 | 0.212
HCC-78 | 0.858 | 0.642 | 0.303 | 0.284 | 0.328
HCC-366 | 1 | 0.813 | 0.0889 | 0.0461 | 0.054
HCC-827 | 0.947 | 1.01 | 0.812 | 0.363 | 0.324
HOP-62 | 0.918 | 0.867 | 0.505 | 0.237 | 0.17
IA-LM | 0.795 | 0.823 | 0.569 | 0.357 | 0.0972
LC-2-ad | 0.736 | 0.594 | 0.347 | 0.245 | 0.225
LCLC-97TM1 | 0.931 | 0.791 | 0.496 | 0.137 | 0.121
LCLC-103H | 0.903 | 1.04 | 0.875 | 0.392 | 0.293
LK-2 | 0.962 | 0.853 | 0.497 | 0.297 | 0.202
LOU-NH91 | 0.938 | 0.958 | 0.734 | 0.478 | 0.398

Cell Line | relative viability (0.005 µM) | relative viability (0.01581 µM) | relative viability (0.05 µM) | relative viability (0.1581 µM) | relative viability (0.5 µM)
LU99A | 0.961 | 0.853 | 0.579 | 0.288 | 0.193
LXF-289 | 0.844 | 0.672 | 0.46 | 0.183 | 0.195
NCI-H23 | 0.752 | 0.529 | 0.272 | 0.217 | 0.197
NCI-H322M | 0.874 | 0.894 | 0.812 | 0.501 | 0.493
NCI-H358 | 0.791 | 0.797 | 0.2 | 0.147 | 0.14
NCI-H441 | 0.839 | 0.662 | 0.201 | 0.179 | 0.188
NCI-H460 | 0.922 | 0.844 | 0.49 | 0.0862 | 0.0474
NCI-H520 | 0.843 | 0.722 | 0.462 | 0.451 | 0.317
NCI-H522 | 0.817 | 1.02 | 0.696 | 0.515 | 0.452
NCI-H596 | 0.882 | 1 | 1.07 | 0.816 | 0.4
NCI-H647 | 0.733 | 0.654 | 0.318 | 0.152 | 0.0801
NCI-H650 | 0.724 | 0.856 | 0.394 | 0.258 | 0.209
NCI-H661 | 1.01 | 0.965 | 0.663 | 0.415 | 0.374
NCI-H727 | 0.817 | 0.929 | 0.542 | 0.384 | 0.401
NCI-H838 | 0.833 | 0.831 | 0.617 | 0.313 | 0.191
NCI-H1355 | 0.881 | 0.771 | 0.774 | 0.255 | 0.204
NCI-H1395 | 0.877 | 0.862 | 0.535 | 0.452 | 0.394
NCI-H1437 | 0.896 | 0.836 | 0.605 | 0.344 | 0.203
NCI-H1563 | 0.999 | 0.943 | 0.871 | 0.903 | 0.647
NCI-H1648 | 0.833 | 0.755 | 0.606 | 0.255 | 0.242
NCI-H1650 | 0.846 | 0.736 | 0.289 | 0.192 | 0.224
NCI-H1651 | 0.859 | 0.892 | 0.571 | 0.298 | 0.209
NCI-H1666 | 0.904 | 0.814 | 0.689 | 0.534 | 0.438
NCI-H1703 | 0.871 | 0.721 | 0.57 | 0.241 | 0.143
NCI-H1734 | 0.802 | 0.731 | 0.417 | 0.299 | 0.193
NCI-H1755 | 0.939 | 0.963 | 0.805 | 0.386 | 0.36

Cell Line | relative viability (0.005 µM) | relative viability (0.01581 µM) | relative viability (0.05 µM) | relative viability (0.1581 µM) | relative viability (0.5 µM)
NCI-H1792 | 0.81 | 0.68 | 0.538 | 0.232 | 0.109
NCI-H1793 | 0.745 | 0.473 | 0.411 | 0.264 | 0.233
NCI-H1915 | 0.816 | 0.773 | 0.572 | 0.383 | 0.25
NCI-H1944 | 0.923 | 1.08 | 0.789 | 0.39 | 0.273
NCI-H1975 | 0.85 | 0.828 | 0.565 | 0.317 | 0.207
NCI-H1993 | 0.906 | 0.92 | 0.621 | 0.468 | 0.516
NCI-H2009 | 0.926 | 0.97 | 0.513 | 0.303 | 0.254
NCI-H2023 | 0.838 | 0.727 | 0.566 | 0.227 | 0.109
NCI-H2085 | 0.936 | 0.955 | 0.572 | 0.327 | 0.385
NCI-H2087 | 0.941 | 0.807 | 0.312 | 0.176 | 0.201
NCI-H2126 | 0.938 | 0.941 | 0.699 | 0.361 | 0.314
NCI-H2170 | 0.94 | 0.883 | 0.815 | 0.423 | 0.323
NCI-H2228 | 0.778 | 0.85 | 0.531 | 0.158 | 0.189
NCI-H2342 | 0.812 | 0.978 | 0.776 | 0.551 | 0.42
NCI-H2347 | 1.01 | 0.906 | 0.862 | 0.703 | 0.428
NCI-H2405 | 0.952 | 0.967 | 0.833 | 0.41 | 0.282
NCI-H3122 | 0.943 | 0.977 | 0.831 | 0.405 | 0.295
PC-3 [JPC-3] | 0.974 | 0.976 | 0.932 | 0.48 | 0.398
PC-14 | 0.827 | 0.846 | 0.584 | 0.156 | 0.0817
RERF-LC-KJ | 0.929 | 0.792 | 0.597 | 0.254 | 0.247
SK-LU-1 | 0.856 | 0.802 | 0.447 | 0.333 | 0.232
SK-MES-1 | 0.913 | 0.947 | 0.561 | 0.326 | 0.16
SW 900 | 0.635 | 0.81 | 0.506 | 0.264 | 0.24
SW 1573 | 0.919 | 0.644 | 0.372 | 0.213 | 0.147
UMC-11 | 0.437 | 0.3 | 0.211 | 0.176 | 0.186
